In patent publication US7387888B2, “Coronamycins” (priority 2004, dated 2008):
Values after ≈ are worked out from the molar mass of the structure shown. Each block holds one compound with its values, some of them ahead of it.

Assays:
[1] = tested on: Candida parapsilosis (ATCC 90018); assay: microbroth dilution assay of human pathogenic yeasts (NCCLS M27A, Alamar Blue); type: cell-based; settings: 24 to 48 hours
Protocol: (§1) Microbroth dilution assays of human pathogenic yeasts were performed as described in the NCCLS M27A (NCCLS, 1997) with the addition of Alamar Blue (Trek Diagnostics Systems, Inc., Westlake, Ohio) as a colorimetric indicator of viability (Espinel-Ingroff et al., 1999, J. Clin. Microbiol. 37: 591-595). All isolates were obtained from the ATCC. The assays were performed in sterile 96 well plates. The total volume per well was 100 μl. Two wells were inoculated for a given concentration. The MIC was defined as that concentration of compound resulting in no visible growth of the test organism after 24 to 48 hours of incubation with the exception of Cryptococcus neoformans which was read at 72 hours. Flucytosine was included as a control antifungal compound.

[2] = tested on: Cryptococcus neoformans (ATCC 32045); assay: as above; type: cell-based; settings: read at 72 hours
Protocol: as §1

[3] = tested on: Candida albicans (ATCC 24433); assay: as above; type: cell-based; settings: 24 to 48 hours
Protocol: as §1

[4] = tested on: Candida parapsilosis (ATCC 22019); assay: as above; type: cell-based; settings: 24 to 48 hours
Protocol: as §1

[5] = tested on: Candida albicans (ATCC 90028); assay: as above; type: cell-based; settings: 24 to 48 hours
Protocol: as §1

[6] = tested on: Saccharomyces cerevisiae (ATCC 9763); assay: as above; type: cell-based; settings: 24 to 48 hours
Protocol: as §1

[7] = tested on: Candida tropicalis (ATCC 750); assay: as above; type: cell-based; settings: 24 to 48 hours
Protocol: as §1

[8] = tested on: Candida krusei (ATCC 6258); assay: as above; type: cell-based; settings: 24 to 48 hours
Protocol: as §1

[9] = tested on: Plasmodium falciparum strain CSC-1 (Honduras); assay: antimalarial assay against Plasmodium falciparum (3H-phenylalanine uptake); type: cell-based; settings: read-out: IC50 against Plasmodium falciparum
Protocol: All cultures were maintained in a microaerophilic environment containing 1% oxygen/5% CO2 with the balance being nitrogen. […] Control cultures contained the same quantity of DMSO or water as that used in the experimental trials. Data were reported as IC50 values.
Parasite cultures, adjusted to 0.1-0.5% parasitemia by addition of freshly washed human erythrocytes, were pipetted into 96 well culture plates by adding 10 μl of a 50% cell suspension to each well to give a final volume of 5 μl of packed erythrocytes per well. The test compounds in RPMI 1640 were added at 95 μl per well to four wells per each concentration of test compound. Quadruplicate control wells were treated similarly with DMSO or water added without the test compounds present. The cultures were gassed and exposed to radiolabeled ^3[H]-phenylalanine (1 microcurie per well) for the final 24 hour of treatment. Cultures were monitored for bacterial contamination and for parasite viability by Giemsa staining of thin films. Ultimately, the cells were harvested onto glass-fiber filters, followed by liquid scintillation counting. The IC50 for each compound was determined by linear regression analysis using 50% of the control counts as the regression point. The experiment was repeated three times, the data averaged, and the standard deviation of the mean determined.

[10] = in vitro; settings: human, primary mammary epithelial cells (HMEC)
Protocol: (§2) The BT20 cells were grown in the medium recommended by ATCC and were seeded into 96 well clear flat bottom plates at 3000 cells per well in 100 μl. The primary mammary cells were cultured as recommended by the manufacturer in mammary epithelial cell growth media (MEGM®) and were seeded at 3200 cells per well in 100 μl.
(§3) Each plate also contained some wells with cells plus medium only and some wells with medium only as controls. After addition of the compounds, the plates were incubated at 37° C. for 48 hours or 96 hours for the HMEC and BT20 cell lines, respectively.
(§4) The proliferation assay was performed using the manufacturer's protocols; a 20:1 solution of MTS and PMS was mixed and 10 to 40 μl was added to each well depending on the total volume in the wells. The plates were incubated at 37° C. for one to four hours, and the OD490 was determined. The OD reading of all wells was corrected for background by subtracting the reading of wells containing medium only. The wells containing cells only were used as a control for 100% viability.

[11] = tested on: human cancer cell line BT20 (breast epithelial cancer); assay: CellTiter 96 cell proliferation assay, BT20; type: cell-based; settings: BT-20, 50% viability, 96 hours incubation
Protocol: as §2, §3, §4

SMILES: Nc1[nH]c(=O)ncc1F [Flucytosine]
MIC [1]: 0.12 μml^−1
MIC [2]: 8 μml^−1
MIC [3]: 1.0 μml^−1
MIC [4]: 0.5 μml^−1
MIC [5]: 0.5 μml^−1
MIC [6]: <=0.06 μml^−1
MIC [7]: <=0.06 μml^−1
MIC [8]: 16 μml^−1

IC50 [9]: 7 ng/mL (≈ 0.0219 µM)
SMILES: CCN(CC)CCCC(C)Nc1ccnc2cc(Cl)ccc12 (centres unmarked) [chloroquine]

SMILES: CC(=O)O[C@H]1C(=O)[C@@]2(C)[C@H]([C@H](OC(=O)c3ccccc3)[C@]3(O)C[C@H](OC(=O)[C@H](O)[C@@H](NC(=O)c4ccccc4)c4ccccc4)C(C)=C1C3(C)C)[C@]1(OC(C)=O)CO[C@@H]1C[C@@H]2O [taxol]
IC50 at 48 h [10]: 25000 to 30000 ng/mL (≈ 29.3 to 35.1 µM)
IC50 [11]: 9 ng/mL (≈ 0.0105 µM)
